According to article PMC7464159, “Triple Negative Breast Cancer and Breast Epithelial Cells Differentially Reprogram Glucose and Lipid Metabolism upon Treatment with Triterpenic Acids” (Biomolecules, 2020):

Legend:
MDA-MB-231 cells = system: MDA-MB-231 cells; parameters: method as in PMID 28213701; conditions: MDA-MB-231, 24 h incubation; read-out: IC50 reported in the literature; cited from earlier work
MCF-10A cells = experiment: 1H NMR metabolomics of polar (aqueous) cell extracts; type: cell-based, human; conditions: BA 5µM
Experimental: MDA-MB-231 and MCF-10A cells were seeded in 10-cm-diameter Petri dishes at a density of 6 × 10^5 cells/mL (10 mL per dish) and cultured for 24 h at 37 °C. […] Vehicle solvent control cells received DMSO (0.10% v/v). Samples were collected immediately after 48 h incubation or, to assess cellular recovery, medium was replaced with fresh growth medium (without TAs), and cells were incubated for additional 24 h before collection (48 + 24 h samples). Four independent assays were performed.
After incubation, culture medium was collected and centrifuged (1000× g, 5 min) and the supernatant stored at −80 °C until analysis. Culture medium without cells was placed under the same conditions and collected. Cell extraction was performed as described by Carrola et al.. Briefly, cells were washed four times with PBS and extracted with a mixture of methanol:chloroform:water (1:1:0.7). The resulting polar and organic phases were collected and then dried under vacuum or under a stream of nitrogen gas, respectively. All samples were stored at −80 °C and, at the time of analysis, dried polar extracts were reconstituted in 600 µL of deuterated phosphate buffer (100 mM, pH 7.4) containing 0.1 mM TSP-d4, while organic extracts were reconstituted in deuterated chloroform containing 0.03% TMS. Regarding medium samples, 540 μL were mixed with 60 μL of D2O containing 0.25% TSP-d4. Prior to analysis, 550 μL of each sample were transferred to 5 mm NMR tubes.
^1H NMR spectra of all samples were acquired on a Bruker Avance III HD 500 NMR spectrometer (University of Aveiro, Portuguese NMR Network) operating at 500.13 MHz for ^1H observation equipped with a 5 mm TXI probe. Standard 1D spectra (Bruker pulse programs ‘noesypr1d’, with water suppression, for medium samples and aqueous extracts, and ‘zg’ for organic extracts) were recorded with a 7002.8 Hz spectral width, 32 k data points, a 2 s relaxation delay and 512 scans. Spectral processing comprised exponential multiplication with 0.3 Hz line broadening, zero filling to 64 k data points, manual phasing, baseline correction, and chemical shift calibration to the TSP or TMS signal at 0 ppm. 2D ^1H-^1H total correlation (TOCSY) spectra, ^1H-^13C heteronuclear single quantum correlation (HSQC) spectra and J-resolved spectra were also registered for selected samples to assist spectral assignment. Metabolites were identified with the support of 2D spectra and the spectral reference databases BBIOREFCODE-2-0-0 (Bruker Biospin, Rheinstetten, Germany) and HMDB [28]. Selected signals were then integrated using the AmixViewer software […] (version 3.9.14, Bruker BioSpin, Rheinstetten, Germany) and normalized by the total spectral area. The magnitude of each metabolite change was assessed through the percentage of variation (and its respective error) in exposed samples relatively to controls, and through the effect size (ES) adjusted for small sample numbers (and respective standard error). Metabolite variations with absolute ES greater than 0.8 were expressed in a heatmap, colored as a function of the percentage of variation, employing the R statistical software.

In the case of `C=C(C)[C@@H]1CC[C@]2(C(=O)O)CC[C@]3(C)[C@H](CC[C@@H]4[C@@]5(C)CC[C@H](O)C(C)(C)[C@@H]5CC[C@]43C)[C@@H]12` [BA, betulinic acid], the IC50 (MDA-MB-231 cells) is given as 30.6 µM, the 1-MethyInicotinamide %var (MCF-10A cells; 48h) is given as 152.75% and the 3-Hydroxyisobutyrate %var (MCF-10A cells; 48h) is given as -48.45%. For the same compound, the ATP %var (MCF-10A cells; 48h) was 0%, the Acetate %var (MCF-10A cells; 48h) was 33.50% and the Ala %var (MCF-10A cells; 48h) was -39.74%. For the same compound, the Asp %var (MCF-10A cells; 48h) was -48.70%, the Choline %var (MCF-10A cells; 48h) was 46.22% and the Citrate %var (MCF-10A cells; 48h) was -74.68%. The Cr %var (MCF-10A cells; 48h) was 59.47%, the Dimethylamine %var (MCF-10A cells; 48h) was -40.51% and the Formate %var (MCF-10A cells; 48h) was 91.07%. For the same compound, the Fumarate %var (MCF-10A cells; 48h) was -80.00%, the GPC %var (MCF-10A cells; 48h) was 307.70% and the GSH %var (MCF-10A cells; 48h) was -31.85%. It also gave a Gln %var (MCF-10A cells; 48h) of 0%, a Glu %var (MCF-10A cells; 48h) of -75.91% and a Glucose %var (MCF-10A cells; 48h) of -56.45%. The Glucose-1-phosphate %var (MCF-10A cells; 48h) was -93.58%, the Gly %var (MCF-10A cells; 48h) was 41.70% and the His %var (MCF-10A cells; 48h) was -25.16%. It also gave an Ile %var (MCF-10A cells; 48h) of 218.16%, a Lactate %var (MCF-10A cells; 48h) of 161.49% and a Leu %var (MCF-10A cells; 48h) of 418.85%. It also gave an NADH %var (MCF-10A cells; 48h) of 62.88%, a PC %var (MCF-10A cells; 48h) of -78.42% and a PCr %var (MCF-10A cells; 48h) of 0%. The Phe %var (MCF-10A cells; 48h) was 0%, the Pro %var (MCF-10A cells; 48h) was 80.04% and the Tyr %var (MCF-10A cells; 48h) was -16.91%. The UDP-GalNAc %var (MCF-10A cells; 48h) was 123.58%, the UDP-GlcNAc %var (MCF-10A cells; 48h) was 151.53% and the UDP-Glucose %var (MCF-10A cells; 48h) was -75.09%. The Val %var (MCF-10A cells; 48h) was 138.35%, the “myo -Lno %var” value (MCF-10A cells; 48h) was -19.23% and the “number of polar metabolites with altered intracellular levels” value (MCF-10A cells; 48h) was 31. It also gave a 1-MethyInicotinamide %var (MCF-10A cells; 48h+24h) of 56.61%, a 3-Hydroxyisobutyrate %var (MCF-10A cells; 48h+24h) of -48.51% and an ATP %var (MCF-10A cells; 48h+24h) of 0%. For the same compound, the Acetate %var (MCF-10A cells; 48h+24h) was 63.78%, the Ala %var (MCF-10A cells; 48h+24h) was -65.18% and the Asp %var (MCF-10A cells; 48h+24h) was -24.38%. It also gave a Choline %var (MCF-10A cells; 48h+24h) of 0%, a Citrate %var (MCF-10A cells; 48h+24h) of -61.27% and a Cr %var (MCF-10A cells; 48h+24h) of 0%. It also gave a Dimethylamine %var (MCF-10A cells; 48h+24h) of 0%, a Formate %var (MCF-10A cells; 48h+24h) of 287.80% and a Fumarate %var (MCF-10A cells; 48h+24h) of 0%. The GPC %var (MCF-10A cells; 48h+24h) was 188.81%, the GSH %var (MCF-10A cells; 48h+24h) was -24.73% and the Gln %var (MCF-10A cells; 48h+24h) was 0%. For the same compound, the Glu %var (MCF-10A cells; 48h+24h) was -47.27%, the Glucose %var (MCF-10A cells; 48h+24h) was 0% and the Glucose-1-phosphate %var (MCF-10A cells; 48h+24h) was -92.25%. The Gly %var (MCF-10A cells; 48h+24h) was 0%, the His %var (MCF-10A cells; 48h+24h) was -44.80% and the Ile %var (MCF-10A cells; 48h+24h) was 36.26%. It also gave a Lactate %var (MCF-10A cells; 48h+24h) of 0%, a Leu %var (MCF-10A cells; 48h+24h) of 75.04% and an NADH %var (MCF-10A cells; 48h+24h) of 0%. It also gave a PC %var (MCF-10A cells; 48h+24h) of 0%, a PCr %var (MCF-10A cells; 48h+24h) of 0% and a Phe %var (MCF-10A cells; 48h+24h) of -24.03%. The Pro %var (MCF-10A cells; 48h+24h) was 0%, the Tyr %var (MCF-10A cells; 48h+24h) was -36.13% and the UDP-GalNAc %var (MCF-10A cells; 48h+24h) was 0%. For the same compound, the UDP-GlcNAc %var (MCF-10A cells; 48h+24h) was 0%, the UDP-Glucose %var (MCF-10A cells; 48h+24h) was -66.89% and the Val %var (MCF-10A cells; 48h+24h) was 10.36%. The “myo -Lno %var” value (MCF-10A cells; 48h+24h) was -52.77%.
